Measured values taken from patent publication US11974995B1, “6′-(4-bromophenyl)-2′-methoxy-3,4′-bipyridine-3′-carbonitrile as an antioxidant compound” (KING FAISAL UNIVERSITY, priority 2023, dated 2024).

Test: DPPH radical scavenging antioxidant test
Details: 517 nm; for Inhibition (radical scavenging inhibition): 0.2 mL DPPH (0.75 mM), compound 3 μM in ethanol, 30 minutes in the dark
Protocol: The antioxidant activity of 6′-(4-bromophenyl)-2′-methoxy-3,4′-bipyridine-3′-carbonitrile was investigated by 2,2-diphenyl-1-picrylhydrazyl (DPPH) in vitro tests that employ vitamin C as the positive control.
The antioxidant properties of the 6′-(4-bromophenyl)-2′-methoxy-3,4′-bipyridine-3′-carbonitrile compound were studied by adding 0.2 mL DPPH (0.75 mM)) to 6′-(4-bromophenyl)-2′-methoxy-3,4′-bipyridine-3′-carbonitrile (3 μM) (4) in ethanol. After 30 minutes of incubation in the dark, the absorbance was read against a blank at 517 nm. Ascorbic acid (vitamin C) was used as standard antioxidants (positive control). A blank sample was prepared by 0.2 mL of DPPH in 3 mL ethanol. A negative control sample was run using ethanol instead of the sample. The radical scavenging inhibition was calculated using the following equation: […]
The antioxidant activity for the synthesized compound is listed in Table 1, using Vitamin C as a reference.

SMILES: COc1nc(-c2ccc(Br)cc2)cc(-c2cccnc2)c1C#N [Product 4, 6′-(4-bromophenyl)-2′-methoxy-3,4′-bipyridine-3′-carbonitrile]
- Inhibition (radical scavenging inhibition): 50%
- antioxidant potential to vanish the DPPH radical colors, compared to vitamin C (DPPH in vitro test, vitamin C as positive control): high potential as an antioxidant compared to vitamin C

SMILES: O=C1O[C@H]([C@@H](O)CO)C(O)=C1O [vit c, Ascorbic acid, reference compound]
- Inhibition (radical scavenging inhibition): 74%
